Results taken from publication PMC11338949, “E41K mutation activates Bruton’s tyrosine kinase by stabilizing an inositol hexakisphosphate-dependent invisible dimer” (The Journal of Biological Chemistry, 2024).
Like-named read-outs stand apart in the source and are kept apart here.

What was measured:
[1] = target: T1, PH-TH^E41K (isolated PH-TH domain of BTK, E41K mutant) (Bos taurus, UniProt Q3ZC95, E41K); assay: Isothermal titration calorimetry, ligand binding to isolated PH-TH domain E41K mutant; settings: ITC
T1 construct: amino acid residue number 4–170; His-SUMO (N, cleaved yes); made in house; host or cells: E. coli BL21-DE3
T1 sequence (Q3ZC95 4-170 E41K): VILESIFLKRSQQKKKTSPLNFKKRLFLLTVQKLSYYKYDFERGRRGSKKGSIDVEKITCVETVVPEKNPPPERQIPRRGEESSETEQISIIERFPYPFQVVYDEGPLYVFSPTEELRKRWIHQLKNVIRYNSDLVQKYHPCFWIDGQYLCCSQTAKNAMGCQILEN
Procedure: (§1) The isothermal titration calorimetry experiments were performed using MicroCal ITC (GE Healthcare) and MicroCal PEAQ-ITC (Malvern). The PH-TH domain was buffer exchanged to 20 mM HEPES, 150 mM NaCl, pH 7.5. During the titration, 25 μM protein in the cell was titrated with a ligand at the protein-to-ligand ratio of 1: 5.5. All ITC titrations were performed at 20 °C. The initial injection of 0.5 μl was excluded from the data analysis. During the titration, 3 μl of ligand was injected in 13 steps, and each injection step was separated by 180 s. The protein solution was stirred at 300 rpm during the titration.

PH-TH^E41K [2] = target: T2, PH-TH^E41K (Bos taurus, UniProt Q3ZC95, E41K); assay: Size-exclusion chromatography of PH-TH domain with ligand
T2 construct: amino acid residue number 4–170; His-SUMO (N, cleaved yes); made in house; host or cells: E. coli BL21-DE3
T2 sequence (Q3ZC95 4-170 E41K): as above
Procedure: Size-exclusion chromatography of various constructs of the PH-TH domain was performed using the Superdex-200 10/300 Gl column. For the apo PH-TH domain, the column was equilibrated with running buffer (25 mM Tris-Cl, 100 mM NaCl, 1 mM DTT, pH 7.2), and 500 μl of 75 μM protein was loaded into the column, at a flow rate of 0.3 ml/min and at 8 °C. The elution profile was recorded, and the retention time of the protein was calculated. For the ligand-bound samples, the protein was mixed with ligand at a protein-to-ligand ratio of 1:4, and incubated at 4 °C for 15 min before loading into the size-exclusion column. Before loading the sample, the column was pre-equilibrated with a running buffer containing the ligand.

PH-TH^E41K [3] = target: T2, PH-TH^E41K; assay: Dynamic light scattering of PH-TH domain with IP6; settings: in the presence of IP6
Procedure: (§2) The Dynamic Light Scattering experiments were conducted using Malvern Zetasizer DLS Detectors using 1.5 ml plastic cuvettes. The samples were prepared in a buffer containing 25 mM Tris-Cl, 100 mM NaCl, 1 mM DTT, and pH 7.2. The experiment included three measurements of ten runs each. The theoretical calculations of the hydrodynamic radius of the proteins were performed using Hydropro ([51]).

[4] = target: T3, wild-type PH-TH domain of BTK (Bos taurus, UniProt Q3ZC95); assay: Dynamic light scattering of PH-TH domain with IP6; settings: IP6 bound PH-TH domain
T3 construct: amino acid residue number 4–170; His-SUMO (N, cleaved yes); made in house; host or cells: E. coli BL21-DE3
T3 sequence (Q3ZC95 4-170): as the sequence (Q3ZC95 4-170 E41K) above, with K38E counted along it
Procedure: as §2

PH-TH^E41K [5] = target: T2, PH-TH^E41K; assay: Thermal denaturation by circular dichroism spectroscopy; settings: at the Tm of the apo state, equimolar ligand
Procedure: The melting temperature of the PH-TH domain was determined from the Circular Dichroism (CD) spectrum recorded at increasing temperatures (20° to 76 °C). For each sample, the CD spectra from 300 to 190 nm were recorded using a Jasco-J1500 spectropolarimeter with a temperature increment of 4 °C. CD spectra were recorded with 5 μM protein in 20 mM Sodium phosphate buffer pH 7.4 and in the absence or in the presence of an equimolar ligand. The measured ellipticity data was converted into molar ellipticity ([39]). The ΔGUnfolding was calculated considering the simplest two-step unfolding model, where a protein exists in a folded (F) and an unfolded (U) state as described previously ([40], [41]). The fraction unfolded [U] protein at a given temperature is:(1) [U]=(θT−θF)/(θU−θF) Where, θF and θU are the molar ellipticity of the fully folded and unfolded state at 218 nm, θT is the molar ellipticity at a given temperature. Considering that at a given temperature, the sum of the unfolded and folded [F] fraction of the protein is 1, the equilibrium constant, KUnfolding is:(2) KUnfolding=[U]/1−[U] […] The ΔΔGunfolding was calculated from the difference between the ΔG of the IP6 bound ΔGholo and ΔGapo state, measured at the Tm of the corresponding apo PH-TH construct.

BTK^E41K = target: T4, BTK^E41K (Mus musculus, UniProt P35991, E41K); assay: TIRF microscopy of membrane-bound BTK-mCherry in live CHO cells after IP6 stimulation; assay type: cell-based, Chinese Hamster
T4 construct: expressed in transfected cells; host or cells: CHO cells, transient transfection with pCDNA BTK-mCherry
T4 sequence (P35991 whole entry E41K): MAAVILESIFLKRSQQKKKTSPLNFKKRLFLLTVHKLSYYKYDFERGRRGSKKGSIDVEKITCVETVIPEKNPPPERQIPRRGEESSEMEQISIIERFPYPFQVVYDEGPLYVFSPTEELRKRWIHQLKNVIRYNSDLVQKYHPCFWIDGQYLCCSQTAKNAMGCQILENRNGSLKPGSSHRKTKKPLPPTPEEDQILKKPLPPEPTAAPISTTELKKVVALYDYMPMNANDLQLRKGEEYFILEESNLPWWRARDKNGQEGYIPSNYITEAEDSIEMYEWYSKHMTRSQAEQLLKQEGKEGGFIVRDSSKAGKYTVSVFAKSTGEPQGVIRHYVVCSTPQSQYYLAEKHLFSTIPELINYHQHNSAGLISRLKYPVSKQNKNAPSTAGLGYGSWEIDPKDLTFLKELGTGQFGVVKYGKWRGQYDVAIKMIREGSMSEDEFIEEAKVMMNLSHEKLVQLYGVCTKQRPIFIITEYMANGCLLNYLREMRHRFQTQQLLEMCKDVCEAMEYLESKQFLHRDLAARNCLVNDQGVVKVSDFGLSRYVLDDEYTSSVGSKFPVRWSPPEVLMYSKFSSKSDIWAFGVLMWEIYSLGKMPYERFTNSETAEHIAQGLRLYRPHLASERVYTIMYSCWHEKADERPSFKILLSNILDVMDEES
Procedure: For Total internal reflection fluorescence (TIRF) microscopy, CHO cells were seeded in a glass bottom dish and transfected with 500 ng DNA. After 16 h of post-transfection, cells were serum starved by incubating in Opti-MEM serum-free media for 6 h. The images of lived CHO cells were recorded for 10 min before and after IP6 treatment. The TIRF images were acquired on a Nikon Eclipse Ti2 inverted microscope equipped with a Nikon 100 × 1.49 numerical aperture oil-immersion TIRF objective, a TIRF illuminator, a Perfect Focus system (PFS), and a motorized stage. The critical angle and the refractive index were set to 63° and 1.515, respectively ([53]). The samples were excited at 561 nm using an LU-N4 laser unit (Nikon, Tokyo, Japan) with solid-state lasers. Image acquisition was done using the Nikon NIS-Elements software. Live cell images were acquired at 1-min intervals for 10 min using an EMCCD camera, with an exposure time of 200 ms. The images were processed and analyzed using Fiji. Out-of-focus fluorescence in the acquired images is removed by deconvolution ([54]). […] The fluorescence intensity of each frame was quantified using “create spectrum jru V1” routine of Fiji. The half-life of fluorescence intensity at the plasma membrane was determined by fitting the fluorescence decay at indicated time points to a first-order kinetic equation using GraphPad Prism version 9.5.1.

BTK PH-TH E41K/R49S = target: T5, BTK PH-TH E41K/R49S (Bos taurus, UniProt Q3ZC95, E41K/R49S); assay: Isothermal titration calorimetry, IP6 binding to PH-TH E41K/R49S; settings: ITC
T5 construct: amino acid residue number 4–170; His-SUMO (N, cleaved yes); made in house; host or cells: E. coli BL21-DE3
T5 sequence (Q3ZC95 4-170 E41K/R49S): as the sequence (Q3ZC95 4-170 E41K) above, with R46S counted along it
Procedure: as §1, with “analysis.” for “analysis. During the titration, 3 μl of ligand was injected in 13 steps, and each injection step was separated by 180 s. The protein solution was stirred at 300 rpm during the titration.”

BTK PH-TH E41K/R28H = target: T6, BTK PH-TH E41K/R28H (Bos taurus, UniProt Q3ZC95, E41K/R28H); assay: Isothermal titration calorimetry, IP6 binding to PH-TH E41K/R28H; settings: ITC
T6 construct: amino acid residue number 4–170; His-SUMO (N, cleaved yes); made in house; host or cells: E. coli BL21-DE3
T6 sequence (Q3ZC95 4-170 R28H/E41K): as the sequence (Q3ZC95 4-170 E41K) above, with R25H counted along it
Procedure: as §1, with “analysis.” for “analysis. During the titration, 3 μl of ligand was injected in 13 steps, and each injection step was separated by 180 s. The protein solution was stirred at 300 rpm during the titration.”

BTK wild-type = BTK wild-type (Mus musculus, UniProt P35991); assay: Immunofluorescence of Y551 phosphorylation in transiently transfected CHO cells; settings: 500 μM IP6 for 1 h
Sequence of BTK wild-type (P35991 whole entry): as the sequence (P35991 whole entry E41K) above, with K41E counted along it
Procedure: (§3) The IP6-mediated activation of BTK was determined by immunofluorescence and immunoblot in Chinese Hamster Ovary (CHO) cell line transiently transfected with BTK-mCherry cloned in pCDNA. […] Before activation, transfected cells were serum-starved for 6 h in opti-MEM, followed by incubation with 500 μM IP6 for 1 h in opti-MEM. For Immunoblot, cells were washed with ice-cold PBS and then incubated in RIPA buffer [10 mM Tris-Cl (pH 8.0), 140 mM NaCl, 1 mM EDTA, 0.1% SDS, and 1% Triton X-100] containing protease and phosphatase inhibitors (2 mM Benzamidine, 1 mM PMSF and 1 mM Sodium orthovanadate) for 10 min. […]
(§4) All images were acquired with the Leica SP8 confocal platform using an oil immersion HC PL APO CS2 63 × objective (NA 1.4) at 3.0X digital zoom. […] The level of BTK on the membrane or cytoplasm was determined from the intensity of mCherry measured at λex = 552 nm and λem = 576 to 651 nm, respectively. The Y551 phosphorylation was determined from the intensity of FITC tagged to the secondary antibody and measured at λex = 488 nm and λem = 505 to 531 nm. […] The intensity of mCherry or FITC at the membrane was determined by subtracting the respective intensities of ROI2 from ROI1. Whereas cytoplasmic intensity of mCherry or FITC was determined by subtracting the respective intensities of ROI3 from ROI2. […]

BTK^E41K/R28H = BTK^E41K/R28H (Mus musculus, UniProt P35991, E41K/R28H); assay: as above; settings: 500 μM IP6 for 1 h
Sequence of BTK^E41K/R28H (P35991 whole entry R28H/E41K): as the sequence (P35991 whole entry E41K) above, with R28H counted along it
Procedure: as §3, §4

| SMILES | binding to PH-TH^E41K ([1]; 25 μM protein titrated with 137 μM ligand) | dimerization of PH-TH^E41K (PH-TH^E41K [2]; size-exclusion chromatography, in the presence of ligand) | hydrodynamic radius (PH-TH^E41K [3]) [nm] | hydrodynamic radius [4] [nm] | ΔΔGunfolding (ΔGholo – ΔGapo) (PH-TH^E41K [5]) [kcal/mol] | critical concentration at which BTK^E41K comes out of the membrane (BTK^E41K) [mM] | ∆H1 (BTK PH-TH E41K/R49S; Table S1) [kcal/mol] | Kd (BTK PH-TH E41K/R49S; one-site fit, binding to canonical lipid binding site, read-out: Kd (Kd1)) [nM] | ∆H1 ([1]; Table S1) [kcal/mol] | ∆H2 ([1]; Table S1) [kcal/mol] | Kd ([1]; Table S1, 20 °C, read-out: Kd2) [nM] | Kd ([1]; two-site independent binding model, strong site, 20 °C, read-out: Kd1) [nM] | Kd ([1]; two-site independent binding model, weak site, 20 °C, read-out: Kd2) [nM] | ∆H1 (BTK PH-TH E41K/R28H; Table S1) [kcal/mol] | Kd (BTK PH-TH E41K/R28H; Table S1, read-out: Kd1) [nM] | Kd (BTK PH-TH E41K/R28H; one-site fit, weak binding to peripheral lipid binding site, read-out: Kd) [nM] | activation (Y551 phosphorylation) of cytosolic fraction of BTK (BTK wild-type) | apparent size of migrating species in size-exclusion column (PH-TH^E41K [2]; in the presence of IP6 (300 μM)) [kDa] | activation (Y551 phosphorylation) of BTK (BTK^E41K/R28H) |
| --- | --- | --- | --- | --- | --- | --- | --- | --- | --- | --- | --- | --- | --- | --- | --- | --- | --- | --- | --- |
| O=P(O)(O)O[C@@H]1[C@H](O)[C@H](O)[C@@H](OP(=O)(O)O)[C@H](OP(=O)(O)O)[C@H]1O [IP3] | does not bind | does not dimerize |  |  |  |  |  |  |  |  |  |  |  |  |  |  |  |  |  |
| O=P(O)(O)OC1C(OP(=O)(O)O)C(OP(=O)(O)O)C(OP(=O)(O)O)C(OP(=O)(O)O)C1OP(=O)(O)O (stereo not shown) [IP6, inositol hexakisphosphate] |  |  | 3.14 ± 0.48 | 2.18 ± 0.10 | 1.49 ± 0.79 | 0.5 | -4.16 ± 0.55 | 622 ± 77 | -4.749 ± 0.159 | -5.098 ± 2.36 | 1280 ± 366 | 152 ± 18 | 1300 ± 400 | -1.562 ± 1.008 | 2420 ± 151 | 2400 ± 150 | activates | ~44 | does not activate |
